Measured values taken from patent US10544141B2, “Derivatives and methods of treating hepatitis B infections” (Novira Therapeutics, Inc., priority 2014, dated 2020).

system: HBV; assay: HBV replication inhibition assay (BDNA assay) in HepG2.2.15 cells; format: cell-based; conditions: 6 days treatment, encapsidated HBV DNA in supernatant by branched DNA QuantiGene assay
From the text: HBV replication inhibition by the compounds of this invention could be determined in cells infected or transfected with HBV, or cells with stably integrated HBV, such as HepG2.2.15 cells (Sells et al. 1987). In this example, HepG2.2.15 cells were maintained in cell culture medium containing 10% fetal bovine serum (FBS), Geneticin, L-glutamine, penicillin and streptomycin. HepG2.2.15 cells could be seeded in 96-well plates at a density of 40,000 cells/well and be treated with serially diluted compounds at a final DMSO concentration of 0.5% either alone or in combination by adding drugs in a checker box format. Cells were incubated with compounds for three days, after which medium was removed and fresh medium containing compounds was added to cells and incubated for another three days. At day 6, supernatant was removed and treated with DNase at 37° C. for 60 minutes, followed by enzyme inactivation at 75° C. for 15 minutes. Encapsidated HBV DNA was released from the virions and covalently linked HBV polymerase by incubating in lysis buffer (Affymetrix QS0010) containing 2.5 μg proteinase K at 50° C. for 40 minutes. HBV DNA was denatured by addition of 0.2 M NaOH and detected using a branched DNA (BDNA) QuantiGene assay kit according to manufacturer recommendation (Affymetrix). HBV DNA levels could also be quantified using qPCR, based on amplification of encapsidated HBV DNA extraction with QuickExtraction Solution (Epicentre Biotechnologies) and amplification of HBV DNA using HBV specific PCR probes that can hybridize to HBV DNA and a fluorescently labeled probe for quantitation. In addition, cell viability of HepG2.2.15 cells incubated with test compounds alone or in combination was determined by using CellTitre-Glo reagent according to the manufacturer protocol (Promega). The mean background signal from wells containing only culture medium was subtracted from all other samples, and percent inhibition at each compound concentration was calculated by normalizing to signals from HepG2.2.15 cells treated with 0.5% DMSO using equation E1. % inhibition=(DMSOave−Xi)/DMSOave×100% E1: where DMSOave is the mean signal calculated from the wells that were treated with DMSO control (0% inhibition control) and Xi is the signal measured from the individual wells. EC50 values, effective concentrations that achieved 50% inhibitory effect, were determined by non-linear fitting using Graphpad Prism software (San Diego, Calif.) and equation E2 Y=Y min+(Y max−Y min)/(1+10(Log EC50−X)×HillSlope) E2: […]
where Y represents percent inhibition values and X represents the logarithm of compound concentrations.
Selected compounds of the invention were assayed in the HBV replication assay (BDNA assay), as described above and a representative group of these active compounds is shown in Table 3. […] In Table 3, “A” represents 0.01<EC50<0.10; “B” represents 0.10≤EC50<0.50; and “C” represents 0.50≤EC50<1.0; (‘+’ indicates >50% activity at 10 μM).

Compound C[C@H]1Cc2[nH]nc(C3CCCO3)c2CN1C(=O)Nc1ccc(F)c(Br)c1 (single isomer, unassigned) [967 D1] has an EC50 of 10 to 100 nM.
For C[C@H]1Cc2[nH]nc(C3CCCO3)c2CN1C(=O)Nc1ccc(F)c(Br)c1 (single isomer, unassigned) [967 D2], the EC50 was 100 to 500 nM.

In the case of CC(C)(O)c1n[nH]c2c1CN(C(=O)Nc1cccc(Cl)c1)CC2 [Compound 238], the “HBV replication inhibition >50% at 10 μM (qualitative flag)” value is reported as “+ (‘+’ indicates >50% activity at 10 μM)”.

same assay, conditions: Hepatitis B virus, HepG2.2.15, 144 h, 6 days treatment, encapsidated HBV DNA in supernatant by branched DNA QuantiGene assay

C[C@H]1Cc2[nH]nc(C3CCCO3)c2CN1C(=O)Nc1cccc(Cl)c1 (single isomer, unassigned) [964 D1] and C[C@H]1Cc2[nH]nc(C3CCCO3)c2CN1C(=O)Nc1cccc(Br)c1 (single isomer, unassigned) [966 D1] fall in the same range of EC50: 10 to 100 nM for the first, 10 to 100 nM for the second.

C[C@H]1Cc2[nH]nc(C3CCCO3)c2CN1C(=O)Nc1ccc(F)c(Cl)c1 (single isomer, unassigned) [965 D1] and Cc1cc(NC(=O)N2Cc3c(C4CCCO4)n[nH]c3C[C@@H]2C)ccc1F (single isomer, unassigned) [971 D1] fall in the same range of EC50: 10 to 100 nM for the first, 10 to 100 nM for the second.

Compared with C[C@H]1Cc2[nH]nc(C3CCCO3)c2CN1C(=O)Nc1ccnc(Br)c1F (single isomer, unassigned) [968 D1], CC1Cc2[nH]nc(C3CCC3)c2CN1C(=O)Nc1ccnc(Br)c1F (stereo not shown) [760 S] is lower in EC50: 500 to 1000 nM for the first, 100 to 500 nM for the second.

Compared with C[C@H]1Cc2[nH]nc(C3CCCO3)c2CN1C(=O)Nc1ccc(F)c(C#N)c1 (single isomer, unassigned) [969 D1], C[C@H]1Cc2[nH]nc(C3CCCO3)c2CN1C(=O)Nc1ccc(F)c(Cl)c1 (stereo partly shown) [965 D2] is lower in EC50: 100 to 500 nM for the first, 10 to 100 nM for the second.

Cc1cccc(NC(=O)N2Cc3c(C4CCCO4)n[nH]c3C[C@@H]2C)c1 (single isomer, unassigned) [970 D1] and Cc1cc(NC(=O)N2Cc3c(C4CCCO4)n[nH]c3C[C@@H]2C)ccc1F (stereo partly shown) [971 D2] fall in the same range of EC50: 100 to 500 nM for the first, 100 to 500 nM for the second.

First: CC1Cc2[nH]nc(C3CCC3)c2CN1C(=O)Nc1cccc(C#N)c1F (stereo not shown) [761 R]
Second: C[C@@H]1Cc2[nH]nc(C3CCCC3)c2CN1C(=O)Nc1ccc(F)c(C#N)c1 [930 R]
The EC50 of the first is higher: 100 to 500 nM for the first, 10 to 100 nM for the second.

C[C@@H]1Cc2[nH]nc(C3CCCC3)c2CN1C(=O)Nc1cccc(Br)c1 [927 R] and C[C@H]1Cc2[nH]nc(C3CCCC3)c2CN1C(=O)Nc1cccc(Br)c1 [927 S] fall in the same range of EC50: 10 to 100 nM for the first, 10 to 100 nM for the second.

C[C@@H]1Cc2[nH]nc(C3CCCC3)c2CN1C(=O)Nc1ccc(F)c(Br)c1 [928 R] and C[C@H]1Cc2[nH]nc(C3CCCC3)c2CN1C(=O)Nc1ccc(F)c(Br)c1 [928 S] fall in the same range of EC50: 10 to 100 nM for the first, 10 to 100 nM for the second.

C[C@@H]1Cc2[nH]nc(C3CCCC3)c2CN1C(=O)Nc1ccnc(Br)c1F [929 R] and C[C@H]1Cc2[nH]nc(C3CCCC3)c2CN1C(=O)Nc1ccnc(Br)c1F [929 S] fall in the same range of EC50: 10 to 100 nM for the first, 10 to 100 nM for the second.

C[C@H]1Cc2[nH]nc(C3CCCC3)c2CN1C(=O)Nc1ccc(F)c(C#N)c1 [930 S] and Cc1cc(NC(=O)N2Cc3c(C4CCCC4)n[nH]c3C[C@H]2C)ccc1F [931 R] fall in the same range of EC50: 10 to 100 nM for the first, 10 to 100 nM for the second.

Cc1cc(NC(=O)N2Cc3c(C4CCCC4)n[nH]c3C[C@@H]2C)ccc1F [931 S] and C[C@@H]1Cc2[nH]nc(C3CCCC3)c2CN1C(=O)Nc1ccc(F)c(Cl)c1 [932 R] fall in the same range of EC50: 10 to 100 nM for the first, 10 to 100 nM for the second.

C[C@H]1Cc2[nH]nc(C3CCCC3)c2CN1C(=O)Nc1ccc(F)c(Cl)c1 [932 S] and C[C@@H]1Cc2[nH]nc(C3CCCC3)c2CN1C(=O)Nc1cccc(Cl)c1 [934 R] fall in the same range of EC50: 10 to 100 nM for the first, 10 to 100 nM for the second.

Cc1cccc(NC(=O)N2Cc3c(C4CCCC4)n[nH]c3C[C@H]2C)c1 [933 R] and Cc1cccc(NC(=O)N2Cc3c(C4CCCC4)n[nH]c3C[C@@H]2C)c1 [933 S] fall in the same range of EC50: 10 to 100 nM for the first, 10 to 100 nM for the second.

First: C[C@H]1Cc2[nH]nc(C3CCCC3)c2CN1C(=O)Nc1cccc(Cl)c1 [934 S]
Second: C[C@H]1Cc2[nH]nc(C3CCCO3)c2CN1C(=O)Nc1ccc(F)c(C#N)c1 (stereo partly shown) [969 D2]
The EC50 of the first is lower: 10 to 100 nM for the first, 100 to 500 nM for the second. The first is the more potent here.
